Experimental data published in paper PMC5218480 (PLoS ONE, 2017).

Test system: MV-4-11 cells
Test: Gene expression microarray analysis (Affymetrix PrimeView) and GSEA
Assay type: cell-based, human
Design: RFU PODN (11730768_x_at) / Fold change /veh PODN (11730768_x_at) / RFU LINC00158 (11744669_a_at) / Fold change /veh LINC00158 (11744669_a_at) / RFU DUSP10 (11751237_a_at) / Fold change /veh DUSP10 (11751237_a_at) / RFU ID3 (11757404_x_at) / Fold change /veh ID3 (11757404_x_at) / RFU PLEKHG5 (11737974_s_at) / Fold change /veh PLEKHG5 (11737974_s_at) / RFU LRRC4B (11730491_at) / Fold change /veh LRRC4B (11730491_at) / RFU GIMAP4 (11747438_a_at) / Fold change /veh GIMAP4 (11747438_a_at) / RFU KRT8 (11758183_x_at) / Fold change /veh KRT8 (11758183_x_at) / RFU CNN1 (11734310_a_at) / Fold change /veh CNN1 (11734310_a_at) / RFU VPS37D (11726825_at) / Fold change /veh VPS37D (11726825_at) / RFU C10orf10 (11716522_x_at) / Fold change /veh C10orf10 (11716522_x_at) / RFU KIR2DL2 /// KIR2DL4 /// KIR2DL5A /// KIR2DL5B /// KIR2DS1 /// KIR2DS2 /// KIR2DS3 /// KIR2DS4 /// KIR3DL3 /// KIR3DL3 /// KIR3DS1 (11738374_at) / Fold change /veh KIR2DL2 /// KIR2DL4 /// KIR2DL5A /// KIR2DL5B /// KIR2DS1 /// KIR2DS2 /// KIR2DS3 /// KIR2DS4 /// KIR3DL3 /// KIR3DL3 /// KIR3DS1 (11738374_at) / RFU C1QL1 (11718748_at) / Fold change /veh C1QL1 (11718748_at) / RFU TMPRSS4 (11747572_a_at) / Fold change /veh TMPRSS4 (11747572_a_at) / RFU HAMP (11756126_x_at) / Fold change /veh HAMP (11756126_x_at) / RFU RNFT2 (11725882_a_at) / Fold change /veh RNFT2 (11725882_a_at) / RFU NR4A2 (11747474_a_at) / Fold change /veh NR4A2 (11747474_a_at) / RFU ABCC12 (11746883_a_at) / Fold change /veh ABCC12 (11746883_a_at) / RFU TMEM136 (11760407_x_at) / Fold change /veh TMEM136 (11760407_x_at) / RFU CLDN22 /// WWC2 (11732394_at) / Fold change /veh CLDN22 /// WWC2 (11732394_at) / RFU HLA-DPB1 (11760878_x_at) / Fold change /veh HLA-DPB1 (11760878_x_at) / RFU SPINT1 (11716480_a_at) / Fold change /veh SPINT1 (11716480_a_at) / RFU GAP43 (11754022_s_at) / Fold change /veh GAP43 (11754022_s_at) / RFU A4GNT (11735810_at) / Fold change /veh A4GNT (11735810_at) / RFU PRB3 (11715151_x_at) / Fold change /veh PRB3 (11715151_x_at) / RFU TUBB4B (11761932_at) / Fold change /veh TUBB4B (11761932_at) / RFU CAPN14 (11732068_a_at) / Fold change /veh CAPN14 (11732068_a_at) / RFU TMCC2 (11721928_a_at) / Fold change /veh TMCC2 (11721928_a_at) / RFU IRGQ (11745062_a_at) / Fold change /veh IRGQ (11745062_a_at) / RFU FAM174B (11720279_a_at) / Fold change /veh FAM174B (11720279_a_at) / RFU TMPRSS4 (11748680_a_at) / Fold change /veh TMPRSS4 (11748680_a_at) / RFU FAM212B (11763350_a_at) / Fold change /veh FAM212B (11763350_a_at) / RFU PLEKHG5 (11743358_a_at) / Fold change /veh PLEKHG5 (11743358_a_at) / RFU ZSCAN30 (11745921_a_at) / Fold change /veh ZSCAN30 (11745921_a_at) / RFU CMKLR1 (11741424_a_at) / Fold change /veh CMKLR1 (11741424_a_at) / RFU LOC101060620 /// MAPK8IP1 (11723275_at) / Fold change /veh LOC101060620 /// MAPK8IP1 (11723275_at) / RFU SPTSSB (11747773_x_at) / Fold change /veh SPTSSB (11747773_x_at) / RFU PRSS12 (11739890_at) / Fold change /veh PRSS12 (11739890_at) / RFU BIN1 (11741810_x_at) / Fold change /veh BIN1 (11741810_x_at) / RFU WNT11 (11732464_a_at) / Fold change /veh WNT11 (11732464_a_at) / RFU C10orf10 (11716521_a_at) / Fold change /veh C10orf10 (11716521_a_at) / RFU C5orf56 (11738089_at) / Fold change /veh C5orf56 (11738089_at) / RFU CYB561 (11721691_x_at) / Fold change /veh CYB561 (11721691_x_at) / RFU ANKRD19P (11752326_a_at) / Fold change /veh ANKRD19P (11752326_a_at) / RFU OR2T12 /// OR2T33 /// OR2T8 (11738714_s_at) / Fold change /veh OR2T12 /// OR2T33 /// OR2T8 (11738714_s_at) / RFU VCAN (11748164_a_at) / Fold change /veh VCAN (11748164_a_at) / RFU JSRP1 (11732532_at) / Fold change /veh JSRP1 (11732532_at) / RFU KRTAP10-11 (11738290_x_at) / Fold change /veh KRTAP10-11 (11738290_x_at) / RFU MYO3A (11730013_a_at) / Fold change /veh MYO3A (11730013_a_at) / RFU EBF3 (11725865_a_at) / Fold change /veh EBF3 (11725865_a_at) / RFU CAMK2N1 (11719241_x_at) / Fold change /veh CAMK2N1 (11719241_x_at) / RFU C5orf56 (11738088_a_at) / Fold change /veh C5orf56 (11738088_a_at) / RFU OLFML3 (11715873_a_at) / Fold change /veh OLFML3 (11715873_a_at) / RFU LOC100653217 /// NTM (11731650_a_at) / Fold change /veh LOC100653217 /// NTM (11731650_a_at) / RFU MAPK11 (11762145_a_at) / Fold change /veh MAPK11 (11762145_a_at) / RFU FIZ1 (11724087_x_at) / Fold change /veh FIZ1 (11724087_x_at) / RFU OASL (11726364_x_at) / Fold change /veh OASL (11726364_x_at) / RFU SOX15 (11748057_x_at) / Fold change /veh SOX15 (11748057_x_at) / RFU CD79A (11719716_a_at) / Fold change /veh CD79A (11719716_a_at) / RFU HIST1H1D (11736915_at) / Fold change /veh HIST1H1D (11736915_at) / RFU CASKIN2 (11723855_a_at) / Fold change /veh CASKIN2 (11723855_a_at) / RFU LOC730098 (11760151_x_at) / Fold change /veh LOC730098 (11760151_x_at) / RFU OR4N2 (11742367_at) / Fold change /veh OR4N2 (11742367_at) / RFU PRRT2 (11749266_a_at) / Fold change /veh PRRT2 (11749266_a_at) / RFU SNX32 (11753110_a_at) / Fold change /veh SNX32 (11753110_a_at) / RFU CDHR5 (11726645_a_at) / Fold change /veh CDHR5 (11726645_a_at) / RFU RCAN1 (11760418_a_at) / Fold change /veh RCAN1 (11760418_a_at) / RFU FAM167A (11723789_a_at) / Fold change /veh FAM167A (11723789_a_at) / RFU FAM26E (11764081_at) / Fold change /veh FAM26E (11764081_at) / RFU ISYNA1 (11749810_s_at) / Fold change /veh ISYNA1 (11749810_s_at) / RFU ACY1 (11761880_at) / Fold change /veh ACY1 (11761880_at) / RFU 11764098_at / Fold change /veh 11764098_at / RFU SAMD14 (11745864_x_at) / Fold change /veh SAMD14 (11745864_x_at) / RFU NPB (11741838_a_at) / Fold change /veh NPB (11741838_a_at) / RFU TMPRSS6 (11731388_a_at) / Fold change /veh TMPRSS6 (11731388_a_at) / RFU KRTAP10-2 (11738614_at) / Fold change /veh KRTAP10-2 (11738614_at) / RFU ARHGAP8 /// PRR5-ARHGAP8 (11727945_x_at) / Fold change /veh ARHGAP8 /// PRR5-ARHGAP8 (11727945_x_at) / RFU KRTAP5-7 /// NADSYN1 (11734609_at) / Fold change /veh KRTAP5-7 /// NADSYN1 (11734609_at) / RFU RASL12 (11751679_a_at) / Fold change /veh RASL12 (11751679_a_at) / RFU CDKN2B (11736163_a_at) / Fold change /veh CDKN2B (11736163_a_at) / RFU PRF1 (11729649_at) / Fold change /veh PRF1 (11729649_at) / RFU, ZNF638 /// ZNF638-IT1 / Fold change vs veh, ZNF638 /// ZNF638-IT1 / RFU, PANK3 / Fold change vs veh, PANK3 / RFU, SH3YL1 / Fold change vs veh, SH3YL1 / RFU, ZEB2 / Fold change vs veh, ZEB2 / RFU, NRIP1 / Fold change vs veh, NRIP1 / RFU, PTTG1IP / Fold change vs veh, PTTG1IP / RFU, CAPN2 / Fold change vs veh, CAPN2 / RFU, MED14 / Fold change vs veh, MED14 / RFU, SNORA58 / Fold change vs veh, SNORA58 / RFU, C1orf63 / Fold change vs veh, C1orf63 / RFU, LRRFIP1 / Fold change vs veh, LRRFIP1 / RFU, NDUFAF7 / Fold change vs veh, NDUFAF7 / RFU, SLC12A2 / Fold change vs veh, SLC12A2 / RFU, IBTK / Fold change vs veh, IBTK / RFU, ESF1 / Fold change vs veh, ESF1 / Fold change vs veh, TMEM50B / RFU, TAOK1 / Fold change vs veh, TAOK1 / RFU, ACBD3 / Fold change vs veh, ACBD3 / RFU, TMA16 / Fold change vs veh, TMA16 / RFU, RWDD3 / Fold change vs veh, RWDD3 / RFU, BCAT1 / Fold change vs veh, BCAT1 / RFU, EDEM3 / Fold change vs veh, EDEM3 / RFU, TMEM33 / Fold change vs veh, TMEM33 / RFU, WDR75 / Fold change vs veh, WDR75 / RFU, AHCTF1 / Fold change vs veh, AHCTF1 / RFU, TFRC / Fold change vs veh, TFRC / RFU, ZDHHC17 / Fold change vs veh, ZDHHC17 / RFU, NOM1 / Fold change vs veh, NOM1 / RFU, ARL8B / Fold change vs veh, ARL8B / RFU, ZBTB11 / Fold change vs veh, ZBTB11 / RFU, TAMM41 / Fold change vs veh, TAMM41 / RFU, KIAA1704 /// LOC100996395 / Fold change vs veh, KIAA1704 /// LOC100996395 / RFU, ING1 / Fold change vs veh, ING1 / RFU, TRMT61B / Fold change vs veh, TRMT61B / RFU, FUBP3 / Fold change vs veh, FUBP3 / RFU, TP53 / Fold change vs veh, TP53 / RFU, TNKS2 / Fold change vs veh, TNKS2 / RFU, ZFP14 / Fold change vs veh, ZFP14 / RFU, ACTR2 / Fold change vs veh, ACTR2 / RFU, PPP3R1 / Fold change vs veh, PPP3R1 / RFU, PIK3R1 / Fold change vs veh, PIK3R1 / RFU, HNRNPA1 / Fold change vs veh, HNRNPA1 / RFU, RNF170 / Fold change vs veh, RNF170 / RFU, ZNF28 / Fold change vs veh, ZNF28 / RFU, RNGTT / Fold change vs veh, RNGTT / RFU, OGT / Fold change vs veh, OGT / RFU, BRD1 / Fold change vs veh, BRD1 / RFU, MARS / Fold change vs veh, MARS / RFU, ZNF655 / Fold change vs veh, ZNF655 / RFU, FAHD1 / Fold change vs veh, FAHD1 / RFU, BDP1 / Fold change vs veh, BDP1 / RFU, LRRCC1 / Fold change vs veh, LRRCC1 / RFU, ARID1A / Fold change vs veh, ARID1A / RFU, ZNF146 / Fold change vs veh, ZNF146 / RFU, ZNF330 / Fold change vs veh, ZNF330 / RFU, GPN3 / Fold change vs veh, GPN3 / RFU, C9orf123 / Fold change vs veh, C9orf123 / RFU, N4BP2L2 / Fold change vs veh, N4BP2L2 / RFU, ARFIP1 / Fold change vs veh, ARFIP1 / RFU, FAM179B / Fold change vs veh, FAM179B / RFU, BCL10 / Fold change vs veh, BCL10 / RFU, UHRF1BP1L / Fold change vs veh, UHRF1BP1L / RFU, BET1 / Fold change vs veh, BET1 / RFU, CNOT2 / Fold change vs veh, CNOT2 / RFU, ZNF268 / Fold change vs veh, ZNF268 / Fold change vs veh, ZNF507 / RFU, DGCR2 / Fold change vs veh, DGCR2 / RFU, WDSUB1 / Fold change vs veh, WDSUB1 / Fold change vs veh, HSP90B1 /// MIR3652 / RFU, ADSS / Fold change vs veh, ADSS / RFU, GK / Fold change vs veh, GK / RFU, ZNF148 / Fold change vs veh, ZNF148 / RFU, TAF9 / Fold change vs veh, TAF9 / RFU, SLC1A5 / Fold change vs veh, SLC1A5 / RFU, SLMO2 / Fold change vs veh, SLMO2 / RFU, ABCC4 / Fold change vs veh, ABCC4 / RFU, LOC101060439 /// RAP1B / Fold change vs veh, LOC101060439 /// RAP1B / RFU, RFX7 / Fold change vs veh, RFX7 / RFU, GTPBP10 / Fold change vs veh, GTPBP10 / RFU, CNEP1R1 / Fold change vs veh, CNEP1R1 / RFU, BIVM-ERCC5 /// ERCC5 / Fold change vs veh, BIVM-ERCC5 /// ERCC5 / RFU, ILF3 / Fold change vs veh, ILF3 / RFU 11762660_at / Fold change /veh 11762660_at / RFU VCAN (11757783_s_at) / Fold change /veh VCAN (11757783_s_at) / RFU DDX43 (11728927_at) / Fold change /veh DDX43 (11728927_at) / RFU KRT8 (11758188_x_at) / Fold change /veh KRT8 (11758188_x_at) / RFU NKD1 (11759106_at) / Fold change /veh NKD1 (11759106_at) / RFU SRD5A1 (11742802_a_at) / Fold change /veh SRD5A1 (11742802_a_at) / RFU TPSAB1 /// TPSB2 (11721975_s_at) / Fold change /veh TPSAB1 /// TPSB2 (11721975_s_at) / RFU GSTM3 (11746129_a_at) / Fold change /veh GSTM3 (11746129_a_at) / RFU IL23R (11737362_x_at) / Fold change /veh IL23R (11737362_x_at) / RFU TMEM51 (11727254_a_at) / Fold change /veh TMEM51 (11727254_a_at) / RFU PIWIL2 (11732686_x_at) / Fold change /veh PIWIL2 (11732686_x_at) / RFU ORM1 (11744905_x_at) / Fold change /veh ORM1 (11744905_x_at) / RFU CCDC152 (11743942_at) / Fold change /veh CCDC152 (11743942_at) / RFU ECM1 (11717891_a_at) / Fold change /veh ECM1 (11717891_a_at) / RFU IL23R (11748794_a_at) / Fold change /veh IL23R (11748794_a_at) / RFU TNFAIP8L3 (11732012_x_at) / Fold change /veh TNFAIP8L3 (11732012_x_at) / RFU MBOAT4 (11741988_at) / Fold change /veh MBOAT4 (11741988_at) / RFU 11764193_at / Fold change /veh 11764193_at / RFU TMEM53 (11763286_at) / Fold change /veh TMEM53 (11763286_at) / RFU MAGEB2 (11727129_at) / Fold change /veh MAGEB2 (11727129_at) / RFU TMEM200A (11744735_a_at) / Fold change /veh TMEM200A (11744735_a_at) / RFU CCDC152 (11751479_a_at) / Fold change /veh CCDC152 (11751479_a_at) / RFU FAM211A (11726209_a_at) / Fold change /veh FAM211A (11726209_a_at) / RFU RGS16 (11746705_a_at) / Fold change /veh RGS16 (11746705_a_at) / RFU VCAN (11755009_s_at) / Fold change /veh VCAN (11755009_s_at) / RFU RHOB (11743442_s_at) / Fold change /veh RHOB (11743442_s_at) / RFU RGS16 (11720943_a_at) / Fold change /veh RGS16 (11720943_a_at) / RFU RGS16 (11720944_at) / Fold change /veh RGS16 (11720944_at) / RFU, VPS4B / Fold change vs veh, VPS4B / RFU, CREB1 / Fold change vs veh, CREB1 / RFU, DNAJC13 / Fold change vs veh, DNAJC13 / RFU, GNAQ / Fold change vs veh, GNAQ / RFU, CDK5R1 / Fold change vs veh, CDK5R1 / RFU, ZRANB3 / Fold change vs veh, ZRANB3 / RFU, CUL4A / Fold change vs veh, CUL4A / RFU, CCNY / Fold change vs veh, CCNY / RFU, UFL1 / Fold change vs veh, UFL1 / RFU, COG3 / Fold change vs veh, COG3 / RFU, DIAPH2 / Fold change vs veh, DIAPH2 / RFU, SKA2 / Fold change vs veh, SKA2 / RFU, AFF3 / Fold change vs veh, AFF3 / RFU, LMF1 / Fold change vs veh, LMF1 / RFU, IPO11 / Fold change vs veh, IPO11 / RFU, DFFB / Fold change vs veh, DFFB / RFU, FOXP1 / Fold change vs veh, FOXP1 / RFU, CARD8 / Fold change vs veh, CARD8 / RFU, STRN3 / Fold change vs veh, STRN3 / RFU, ADK / Fold change vs veh, ADK / RFU, RASSF2 / Fold change vs veh, RASSF2 / RFU, WIPF1 / Fold change vs veh, WIPF1 / RFU, LARP1B / Fold change vs veh, LARP1B / RFU, RASA1 / Fold change vs veh, RASA1 / RFU, RB1 / Fold change vs veh, RB1 / RFU, PPFIA1 / Fold change vs veh, PPFIA1 / RFU, MAT2A / Fold change vs veh, MAT2A / RFU, CCT5 / Fold change vs veh, CCT5 / RFU, WDR92 / Fold change vs veh, WDR92 / RFU, CUX1 / Fold change vs veh, CUX1 / RFU, TTC7A / Fold change vs veh, TTC7A / RFU, TMEM135 / Fold change vs veh, TMEM135 / RFU, DEPTOR / Fold change vs veh, DEPTOR / RFU, CPM / Fold change vs veh, CPM / RFU, DNAJB6 / Fold change vs veh, DNAJB6 / RFU, CACNA2D3 / Fold change vs veh, CACNA2D3 / RFU, DTX4 / Fold change vs veh, DTX4 / RFU, TFCP2 / Fold change vs veh, TFCP2 / RFU, GMCL1 /// GMCL1P1 / Fold change vs veh, GMCL1 /// GMCL1P1 / RFU, AEBP2 / Fold change vs veh, AEBP2 / RFU, SNHG1 /// SNORD22 /// SNORD25 /// SNORD26 /// SNORD27 /// SNORD28 /// SNORD29 /// SNORD31 / Fold change vs veh, SNHG1 /// SNORD22 /// SNORD25 /// SNORD26 /// SNORD27 /// SNORD28 /// SNORD29 /// SNORD31 / Fold change (Aza/veh), C12orf56 (ProbeSet 11735607_a_at) / Fold change (ACY-1035/veh), C12orf56 (ProbeSet 11735607_a_at) / Fold change (Aza/veh), FGFR1OP (ProbeSet 11751329_s_at) / Fold change (ACY-1035/veh), FGFR1OP (ProbeSet 11751329_s_at) / Fold change (Aza/veh), VPS36 (ProbeSet 11739960_a_at) / Fold change (ACY-1035/veh), VPS36 (ProbeSet 11739960_a_at) / RFU SYPL1 (11715823_x_at) / Fold change /veh SYPL1 (11715823_x_at) / RFU IGFBP7 (11715501_s_at) / Fold change /veh IGFBP7 (11715501_s_at) / RFU REEP3 (11722064_at) / Fold change /veh REEP3 (11722064_at) / RFU IGLL1 (11728026_x_at) / Fold change /veh IGLL1 (11728026_x_at): dose or concentration left out as unconfirmed
Conditions: MV-4-11 cells, 48 hours

`Nc1ncn([C@@H]2O[C@H](CO)[C@@H](O)[C@H]2O)c(=O)n1` [azacitidine] was tested, and the “RFU CDKN2B (11736163_a_at)” value was 8.51 RFU.
